Laboratory results published in the supplement of paper PMC10307832.

How the values were obtained:
Assay in all cases: relative viability (nuclei count vs DMSO), 5 days (fraction); higher = more cells survive
BI-2536 + Decitabine = compound: CC[C@@H]1C(=O)N(C)c2cnc(Nc3ccc(C(=O)NC4CCN(C)CC4)cc3OC)nc2N1C1CCCC1 [BI-2536] + Nc1ncn([C@H]2C[C@H](O)[C@@H](CO)O2)c(=O)n1 [Decitabine] (partner 2 µM)
Procedure, shortened: (§1)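 Cells from lung cancer lines were seeded into 1536-well plates and, one day later, dosed by pin tool. Treatments were either a single drug or a fixed dose of an anchor drug with five library-drug doses (not always all listed) in √10 steps. After 5 days, nuclei were stained in a one-step fixation (final 0.05% Triton X-100, 1% formaldehyde, 1 ug/ml Hoechst) and counted on 4× images, and relative viability is the treated-to-vehicle nuclei ratio, as the median of duplicate plates.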

[1] = compound: CC1CC(=O)N(C2=CN=C(N=C2N1C3CCCC3)NC4=C(C=C(C=C4)C(=O)NC5CCN(CC5)C)OC)C [NPK76-II-72-1] + CC(=O)c1c(C)c2cnc(Nc3ccc(N4CCNCC4)cn3)nc2n(C2CCCC2)c1=O [Palbociclib] (partner 0.5 µM)
Procedure, shortened: as §1

BI-2536 + Crizotinib = compound: CC[C@@H]1C(=O)N(C)c2cnc(Nc3ccc(C(=O)NC4CCN(C)CC4)cc3OC)nc2N1C1CCCC1 [BI-2536] + C[C@@H](Oc1cc(-c2cnn(C3CCNCC3)c2)cnc1N)c1c(Cl)ccc(F)c1Cl [Crizotinib] (partner 1 µM)
Procedure, shortened: as §1

NPK76-II-72-1 + AZD7762 = compound: CC1CC(=O)N(C2=CN=C(N=C2N1C3CCCC3)NC4=C(C=C(C=C4)C(=O)NC5CCN(CC5)C)OC)C [NPK76-II-72-1] + NC(=O)Nc1cc(-c2cccc(F)c2)sc1C(=O)N[C@H]1CCCNC1 [AZD7762] (partner 0.2 µM)
Procedure, shortened: as §1

LCLC-103H
relative viability (BI-2536 + Decitabine; first compound 0.01 µM): 0.792
relative viability (BI-2536 + Decitabine; first compound 0.03162 µM): 0.749
relative viability (BI-2536 + Decitabine; first compound 0.1 µM): 0.652
relative viability (BI-2536 + Decitabine; first compound 0.3162 µM): 0.322
relative viability (BI-2536 + Decitabine; first compound 1 µM): 0.333
relative viability ([1]; first compound 0.03162 µM): 0.501
relative viability ([1]; first compound 0.1 µM): 0.501
relative viability ([1]; first compound 0.3162 µM): 0.565
relative viability ([1]; first compound 1 µM): 0.484
relative viability (BI-2536 + Crizotinib; first compound 0.01 µM): 1.11
relative viability (BI-2536 + Crizotinib; first compound 0.03162 µM): 0.986
relative viability (BI-2536 + Crizotinib; first compound 0.1 µM): 1.08
relative viability (BI-2536 + Crizotinib; first compound 0.3162 µM): 0.39
relative viability (BI-2536 + Crizotinib; first compound 1 µM): 0.154
relative viability (NPK76-II-72-1 + AZD7762; first compound 0.03162 µM): 0.851
relative viability (NPK76-II-72-1 + AZD7762; first compound 0.1 µM): 0.789
relative viability (NPK76-II-72-1 + AZD7762; first compound 0.3162 µM): 0.852
relative viability (NPK76-II-72-1 + AZD7762; first compound 1 µM): 0.745

LCLC-97TM1
relative viability (BI-2536 + Decitabine; first compound 0.01 µM): 0.228
relative viability (BI-2536 + Decitabine; first compound 0.03162 µM): 0.277
relative viability (BI-2536 + Decitabine; first compound 0.1 µM): 0.163
relative viability (BI-2536 + Decitabine; first compound 0.3162 µM): 0.0912
relative viability (BI-2536 + Decitabine; first compound 1 µM): 0.0986
relative viability ([1]; first compound 0.01 µM): 0.196
relative viability ([1]; first compound 0.03162 µM): 0.215
relative viability ([1]; first compound 0.1 µM): 0.209
relative viability ([1]; first compound 0.3162 µM): 0.211
relative viability ([1]; first compound 1 µM): 0.203
relative viability (BI-2536 + Crizotinib; first compound 0.01 µM): 0.249
relative viability (BI-2536 + Crizotinib; first compound 0.03162 µM): 0.303
relative viability (BI-2536 + Crizotinib; first compound 0.1 µM): 0.2
relative viability (BI-2536 + Crizotinib; first compound 0.3162 µM): 0.168
relative viability (BI-2536 + Crizotinib; first compound 1 µM): 0.105
relative viability (NPK76-II-72-1 + AZD7762; first compound 0.01 µM): 0.298
relative viability (NPK76-II-72-1 + AZD7762; first compound 0.03162 µM): 0.404
relative viability (NPK76-II-72-1 + AZD7762; first compound 0.1 µM): 0.27
relative viability (NPK76-II-72-1 + AZD7762; first compound 1 µM): 0.298

NCI-H727
relative viability (BI-2536 + Decitabine; first compound 0.01 µM): 0.819
relative viability (BI-2536 + Decitabine; first compound 0.03162 µM): 0.841
relative viability (BI-2536 + Decitabine; first compound 0.1 µM): 0.849
relative viability (BI-2536 + Decitabine; first compound 0.3162 µM): 0.477
relative viability (BI-2536 + Decitabine; first compound 1 µM): 0.372
relative viability ([1]; first compound 0.01 µM): 0.705
relative viability ([1]; first compound 0.03162 µM): 0.671
relative viability ([1]; first compound 0.1 µM): 0.594
relative viability ([1]; first compound 0.3162 µM): 0.621
relative viability ([1]; first compound 1 µM): 0.712
relative viability (BI-2536 + Crizotinib; first compound 0.01 µM): 0.939
relative viability (BI-2536 + Crizotinib; first compound 0.03162 µM): 0.7
relative viability (BI-2536 + Crizotinib; first compound 0.1 µM): 0.364
relative viability (BI-2536 + Crizotinib; first compound 0.3162 µM): 0.331
relative viability (BI-2536 + Crizotinib; first compound 1 µM): 0.295
relative viability (NPK76-II-72-1 + AZD7762; first compound 0.01 µM): 0.466
relative viability (NPK76-II-72-1 + AZD7762; first compound 0.03162 µM): 0.67
relative viability (NPK76-II-72-1 + AZD7762; first compound 0.1 µM): 0.545
relative viability (NPK76-II-72-1 + AZD7762; first compound 0.3162 µM): 0.537
relative viability (NPK76-II-72-1 + AZD7762; first compound 1 µM): 0.558

NCI-H1355
relative viability (BI-2536 + Decitabine; first compound 0.01 µM): 0.357
relative viability (BI-2536 + Decitabine; first compound 0.03162 µM): 0.369
relative viability (BI-2536 + Decitabine; first compound 0.1 µM): 0.342
relative viability (BI-2536 + Decitabine; first compound 0.3162 µM): 0.148
relative viability (BI-2536 + Decitabine; first compound 1 µM): 0.154
relative viability ([1]; first compound 0.01 µM): 0.377
relative viability ([1]; first compound 0.03162 µM): 0.427
relative viability ([1]; first compound 0.1 µM): 0.397
relative viability ([1]; first compound 0.3162 µM): 0.383
relative viability ([1]; first compound 1 µM): 0.439
relative viability (BI-2536 + Crizotinib; first compound 0.01 µM): 1.06
relative viability (BI-2536 + Crizotinib; first compound 0.03162 µM): 1.1
relative viability (BI-2536 + Crizotinib; first compound 0.1 µM): 0.796
relative viability (BI-2536 + Crizotinib; first compound 0.3162 µM): 0.198
relative viability (BI-2536 + Crizotinib; first compound 1 µM): 0.184
relative viability (NPK76-II-72-1 + AZD7762; first compound 0.01 µM): 0.686
relative viability (NPK76-II-72-1 + AZD7762; first compound 0.03162 µM): 0.792
relative viability (NPK76-II-72-1 + AZD7762; first compound 0.1 µM): 0.857
relative viability (NPK76-II-72-1 + AZD7762; first compound 0.3162 µM): 0.767
relative viability (NPK76-II-72-1 + AZD7762; first compound 1 µM): 0.748

HOP-62
relative viability (BI-2536 + Decitabine; first compound 0.01 µM): 0.201
relative viability (BI-2536 + Decitabine; first compound 0.03162 µM): 0.209
relative viability (BI-2536 + Decitabine; first compound 0.1 µM): 0.231
relative viability (BI-2536 + Decitabine; first compound 0.3162 µM): 0.151
relative viability (BI-2536 + Decitabine; first compound 1 µM): 0.142
relative viability ([1]; first compound 0.01 µM): 0.397
relative viability ([1]; first compound 0.03162 µM): 0.458
relative viability ([1]; first compound 0.1 µM): 0.462
relative viability ([1]; first compound 0.3162 µM): 0.438
relative viability ([1]; first compound 1 µM): 0.511
relative viability (BI-2536 + Crizotinib; first compound 0.01 µM): 0.986
relative viability (BI-2536 + Crizotinib; first compound 0.03162 µM): 0.949
relative viability (BI-2536 + Crizotinib; first compound 0.1 µM): 0.78
relative viability (BI-2536 + Crizotinib; first compound 0.3162 µM): 0.134
relative viability (BI-2536 + Crizotinib; first compound 1 µM): 0.12
relative viability (NPK76-II-72-1 + AZD7762; first compound 0.01 µM): 0.405
relative viability (NPK76-II-72-1 + AZD7762; first compound 0.03162 µM): 0.507
relative viability (NPK76-II-72-1 + AZD7762; first compound 0.1 µM): 0.556
relative viability (NPK76-II-72-1 + AZD7762; first compound 0.3162 µM): 0.444
relative viability (NPK76-II-72-1 + AZD7762; first compound 1 µM): 0.514

NCI-H2085
relative viability (BI-2536 + Decitabine; first compound 0.01 µM): 0.629
relative viability (BI-2536 + Decitabine; first compound 0.03162 µM): 0.484
relative viability (BI-2536 + Decitabine; first compound 0.1 µM): 0.484
relative viability (BI-2536 + Decitabine; first compound 0.3162 µM): 0.301
relative viability (BI-2536 + Decitabine; first compound 1 µM): 0.303
relative viability ([1]; first compound 0.01 µM): 0.475
relative viability ([1]; first compound 0.03162 µM): 0.445
relative viability ([1]; first compound 0.1 µM): 0.464
relative viability ([1]; first compound 0.3162 µM): 0.489
relative viability ([1]; first compound 1 µM): 0.491
relative viability (BI-2536 + Crizotinib; first compound 0.01 µM): 0.895
relative viability (BI-2536 + Crizotinib; first compound 0.03162 µM): 0.751
relative viability (BI-2536 + Crizotinib; first compound 0.1 µM): 0.578
relative viability (BI-2536 + Crizotinib; first compound 0.3162 µM): 0.254
relative viability (BI-2536 + Crizotinib; first compound 1 µM): 0.307
relative viability (NPK76-II-72-1 + AZD7762; first compound 0.01 µM): 0.923
relative viability (NPK76-II-72-1 + AZD7762; first compound 0.03162 µM): 1.02
relative viability (NPK76-II-72-1 + AZD7762; first compound 0.1 µM): 0.891
relative viability (NPK76-II-72-1 + AZD7762; first compound 0.3162 µM): 1
relative viability (NPK76-II-72-1 + AZD7762; first compound 1 µM): 1.16
